Assay results: patent publication US7713943B2, “Further use of protein kinase N beta” (Silence Therapeutics Aktiengesellschaft (AG), priority 2002, dated 2010)
“Also recorded” adds a separate entry of the source. Marks after values point to notes of the source that are not given here.

Key:
[1] = test system: MPB (myelin basic protein); experiment: In vitro kinase activity of protein kinase N beta derivatives, MPB/MBP phosphorylation; format: biochemical; set-up: key to Activity: +: active; −: inactive; !: no “hyper activation” was observed as one might have expected from comparable mutations in other kinases (Morgan and Debond, 1994); settings: for Activity: MPB substrate, FIG. 9
Experimental: The respective fragments were transiently epressed in HeLa cells. Their relative expression was determined by Western-blot analysis of Hela cell extracts using an anti-PKNbeta antibody.
MPB is myelin basic protein which is a standard in vitro phosphorylation substrate.
As may be taken from FIG. 9A apart from the full-length protein kinase N beta only the kinase domain in its otherwise wildtype form is active in phosphorylating MPB.
The PKNbeta-derived molecules were immune-precipitated from the cell extracts shown in FIG. 10 by using anti-tag antibodies. The immune precipitates were washed as described (Klippel et al., 1996) and divided in two halfs. One half was incubated with 5 μg MBP (UBI) as a phosphorylation substrate, 4 mM MgCl2 and gamma ^32P-ATP in a buffered solution for 10 min at room temperature. In addition, phosphatase inhibitors and inhibitors against unspecifically acting kinases were added as in Klippel et al., 1998. Incorporation of radioactive phosphate was detected by autoradiography after separating the reaction products by 16% SDS-PAGE (FIG. 11B).

GST-GSK3 fusion protein = experiment: Non-radioactive in vitro kinase assay, anti-phospho GSK3alpha Western blot; format: biochemical; settings: immune precipitates, 200 μM rATP, FIG. 11A
Experimental: The second half of the immune precipitates was incubated with 1 μg GST-GSK3 fusion protein (Cell Signaling Technology) as a phosphorylation substrate in the presence of 200 μM rATP. The reaction mixture was subsequently analyzed by 8-16% gradient SDS-PAGE and Western blotting using the anti-phospho GSK3alpha antibody (Cell Signaling Technology) (FIG. 11A).
The specificity of the in vitro phosphorylation reactions was controlled by analyzing kinase defective variants (e.g. containing mutations in the ATP binding site, see above) in parallel to active protein.
In a first step, the suitability of a non-radioactive screening formate was determined, whereby the various protein kinase N beta derivatives as already discussed in connection with example 10, were used for phosphorylating a suitable substrate. Such substrate may, for example, be MBP or a GSK3 peptide which is typically immobilised on a suitable carrier such as agarose- or sepharose beads or on plastic surfaces. In the present case and as depicted in FIG. 11A, the substrate is a GSK3-derived peptide fused to paramyosin. […] The phosphorylated substrate in the present case was detected by anti-phospho GSK3 alpha antibody (mentioned above).

endogenous PKN-beta [2] = experiment: Expression of endogenous PKN-beta after LY294002, Western blot, PC-3 cells; format: cell-based, human
Experimental: (§1) PC-3 cells were cultivated as described in example 1 herein. Said PC-3 cells are PTEN −/−. HeLa cells were obtained from the American Type Culture Collection (ATCC) and grown as described in Sternberger et al. (2002). Transfections were carried out in 10-cm plates (at 30% to 50% confluency) using Fugene 6 (Roche, Nutley, N.J.) according to the manufacturer's instructions. Cultivated cells were trypsinated and harvested following stopping the trypsin effect by medium. Both cell types, i.e. PC-3 cells and HeLa cells were treated for the indicated times with 10 μM LY294002 or DMSO, whereby DMSO was used as the solvent for LY294002 and, because of this, as negative control. The resulting extracts were fractionated by SDS-PAGE and subsequently analysed by Western-blotting. The levels of the indicated proteins such as p110, which served as a loading control, endogenous PKN-beta and phosphorylated Akt were detected using the respective antibodies. Phosphorylated Akt (P*-Akt) serves as a control for the efficacy of the LY294002-mediated treatment.

PKNbeta = experiment: Kinase activity and phosphorylation of recombinant PKN-beta from LY294002-treated HeLa cells; format: cell-based
Source text: Recombinant wildtype PKN-beta or derivatives of PKN-beta (as described in FIGS. 10-11) were transiently expressed in HeLa cells. Said derivatives were PKN-beta derivative TA and derivative KE as described in example 10 herein. The PKN-beta was modified in each case by a myc-tag as described above which allowed the precipitation of PKN-beta and its derivatives using an anti-Myc antibody.
For the assessment of the activity of PKN-beta an in vitro kinase activity using the immune precipitates was carried out as described above. Half of the precipitates were subjected to the in vitro kinase reaction, the second half was analyzed by Western-blotting using anti-phospho-PRK antibodies. The filter was stripped and reprobed using the anti-PKN-beta antiserum. Phospho-p70 S6 Kinase levels were analyzed from aliquots of cell lysates, that were withdrawn earlier, to confirm the efficacy of the LY294002 treatment even after only 3 h treatment. The anti-phospho p70 antibody was obtained from Cell signaling.

endogenous PKN-beta [3] = experiment: Expression of endogenous PKN-beta after LY294002, Western blot, HeLa cells; format: cell-based; settings: 10 μM LY294002, 48 h
Experimental: as §1

[4] = transient overexpression in HeLa cells
[5] = LY294002 treatment, anti-phospho-PRK antibody

Compound: TA718: kinase domain derivative, threonine at position 718 changed to alanine
- Activity [1, 4]: −*

Compound: TD718: kinase domain derivative, threonine at position 718 changed to aspartic acid
- Activity [1, 4]: −*!

Compound: TE718: kinase domain derivative, threonine at position 718 changed to glutamic acid
- Activity [1, 4]: −*!

Compound: Kinase domain comprising amino acids 535-889: protein kinase N beta derivative, kinase domain comprising amino acids 535-889
- phosphorylation of GSK3-derived substrate (GST-GSK3 fusion protein): suitable to phosphorylate the substrate; also recorded: show activity
- phosphorylation of MBP, 32P incorporation ([1]; immune precipitates, gamma 32P-ATP, autoradiography, FIG. 11B): show activity
- phosphorylating MPB (FIG. 9A) [1, 4]: active
- Activity [1, 4]: +*

Compound: O=c1cc(N2CCOCC2)oc2c(-c3ccccc3)cccc12 [LY294002, 2-(4-morpholinyl)8-phenylchromone]
- endogenous PKNbeta expression (protein level) (endogenous PKN-beta [2]; 10 μM LY294002, 24 h): visible reduction
- endogenous PKNbeta expression (protein level) (endogenous PKN-beta [2]; 10 μM LY294002, 48 h): further reduced
- kinase activity of PKNbeta, phosphorylation of MBP (PKNbeta; 3 h of LY294002 treatment): visible
- kinase activity of PKNbeta, phosphorylation of MBP (PKNbeta; 24 h of LY294002 treatment): almost completely inhibited
- kinase activity of PKNbeta, phosphorylation of MBP (PKNbeta; LY294002 treatment of HeLa cells prior to lysis, FIG. 13): strong inhibition
- phosphorylation of PKNbeta at position 718 (PKNbeta; [5]): compromised
- phosphorylation status of PKN-beta derivative KE (PKNbeta; [5]): to some extent affected
- endogenous PKNbeta expression (protein level) (endogenous PKN-beta [3]): reduced amounts can be detected
